Source: patent US9434711B2 (Janssen Pharmaceutica, NV, priority 2007, dated 2016)
Where two headings read alike, the source gives them in different places.

Biological target: canine TRPM8 (Canis lupus familiaris, UniProt Q1A7N1)
Assay: In Vitro Canine TRPM8 Functional Assay (Ca2+ fluorescence, icilin activation)
Assay type: cell-based
Settings: for IC50: read-out: IC50; for inhibition at 0.2 µM: read-out: % Inh @ 0.2
Method in brief: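 HEK293 cells stably expressing canine TRPM8 were loaded with Calcium 3 dye (35 min at 37 °C, then 25 min at room temperature). Compound was added and Ca2+ fluorescence was read for 5 min before icilin at a concentration giving about 80% maximal response. EC50/IC50 came from eight-point dose-response curves, quadruplicate wells.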

[1] = HEK293 cells stably expressing canine TRPM8, icilin activation, eight-point dose-response
[2] = compound at 0.2 μM, canine TRPM8, icilin activation
[3] = compound at 0.5 μM, canine TRPM8, icilin activation, read-out: % Inh @ 0.5
[4] = 0.2 μM compound, HEK293 cells stably expressing canine TRPM8, icilin activation
[5] = HEK293 cells stably expressing canine TRPM8, icilin activation, average of two or more determinations

Sequence of canine TRPM8 (Q1A7N1 1-1104): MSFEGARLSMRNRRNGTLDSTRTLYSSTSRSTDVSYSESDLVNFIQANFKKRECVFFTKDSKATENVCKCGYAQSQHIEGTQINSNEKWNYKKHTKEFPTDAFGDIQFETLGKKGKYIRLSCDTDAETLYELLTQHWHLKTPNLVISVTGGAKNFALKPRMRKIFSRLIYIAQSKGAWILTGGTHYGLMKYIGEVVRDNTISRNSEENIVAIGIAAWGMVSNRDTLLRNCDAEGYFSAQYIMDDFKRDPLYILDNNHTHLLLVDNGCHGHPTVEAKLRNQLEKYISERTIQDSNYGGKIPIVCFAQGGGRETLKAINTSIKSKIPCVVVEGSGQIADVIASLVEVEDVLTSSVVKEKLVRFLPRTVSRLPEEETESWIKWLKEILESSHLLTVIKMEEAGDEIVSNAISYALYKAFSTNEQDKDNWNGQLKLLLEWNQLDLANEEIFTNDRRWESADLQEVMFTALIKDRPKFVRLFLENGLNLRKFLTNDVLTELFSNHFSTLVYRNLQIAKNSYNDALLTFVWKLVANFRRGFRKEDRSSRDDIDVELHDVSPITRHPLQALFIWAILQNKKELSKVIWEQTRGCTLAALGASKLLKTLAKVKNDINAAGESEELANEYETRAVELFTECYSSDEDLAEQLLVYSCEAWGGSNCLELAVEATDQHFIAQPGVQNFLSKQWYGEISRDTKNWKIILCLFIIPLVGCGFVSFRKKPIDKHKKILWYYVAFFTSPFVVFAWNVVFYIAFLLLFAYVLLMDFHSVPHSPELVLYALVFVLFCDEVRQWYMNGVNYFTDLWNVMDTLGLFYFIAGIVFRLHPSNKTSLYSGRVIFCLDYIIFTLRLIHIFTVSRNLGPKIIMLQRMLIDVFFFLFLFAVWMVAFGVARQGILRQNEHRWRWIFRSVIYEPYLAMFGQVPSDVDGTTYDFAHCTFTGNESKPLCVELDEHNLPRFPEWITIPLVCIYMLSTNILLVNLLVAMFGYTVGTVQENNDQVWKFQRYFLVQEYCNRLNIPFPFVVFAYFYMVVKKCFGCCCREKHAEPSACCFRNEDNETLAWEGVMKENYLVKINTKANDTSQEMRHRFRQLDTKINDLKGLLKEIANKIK

Row | Compound | IC50 [1] | inhibition at 0.2 µM [2] | further results
1 | CCCS(=O)(=O)N(Cc1ccc(F)c(F)c1)c1cc2ccccc2s1 [Compound 36, N-(Benzo[b]thiophen-2-yl)-N-(3,4-difluoro-benzyl)-propane-1-sulfonamide] | 77.1 nM |  | inhibition at 0.5 µM [3]: 98%
2 | Cc1c(N(Cc2ccc(OC(F)(F)F)cc2)S(=O)(=O)CCC(C)(C)O)sc2ccccc12 [Compound 796, N-(3-Methyl-benzo[b]thiophen-2-yl)-N-(4-trifluoromethoxy-benzyl)-3-hydroxy-3-methyl-butane-1-sulfonamide] |  |  | inhibition at 0.2 µM [4]: 101%; IC50 [5]: 24.2 nM
3 | CCS(=O)(=O)N(Cc1ccc(F)c(OC)c1)c1cc2ccccc2s1 [Compound 828, N-(Benzo[b]thiophen-2-yl)-N-(4-fluoro-3-methoxy-benzyl)-ethanesulfonamide] |  |  | inhibition at 0.2 µM [4]: 88%; IC50 [5]: 42.7 nM
4 | CCCN(c1sc2ccccc2c1Br)S(=O)(=O)c1ccc(C(=O)O)cc1 [Compound 391, N-(3-Bromo-benzo[b]thiophen-2-yl)-N-(propyl)-4-carboxy-benzenesulfonamide] | 47 nM | 93% | 
5 | Cc1c(N(CC(F)F)S(=O)(=O)c2ccccc2)sc2ccccc12 [Compound 102, N-(2,2-Difluoro-ethyl)-N-(3-methyl-benzo[b]thiophen-2-yl)-benzenesulfonamide] | 40.2 nM | 98% | 
6 | CC(=O)c1c(N(CCCF)S(=O)(=O)c2ccccc2)sc2ccccc12 [Compound 833, N-(3-Acetyl-benzo[b]thiophen-2-yl)-N-(3-fluoro-propyl)-benzenesulfonamide] |  |  | inhibition at 0.2 µM [4]: 102%; IC50 [5]: 13 nM
7 | COc1ccc(CN(c2cc3ccccc3s2)S(=O)(=O)c2ccccc2)cc1 [Compound 49, N-(Benzo[b]thiophen-2-yl)-N-(4-methoxy-benzyl)-benzenesulfonamide] | 170 nM |  | inhibition at 0.5 µM [3]: 90%
8 | CCS(=O)(=O)N(Cc1ccc(F)c(C(F)(F)F)c1)c1sc2ccccc2c1-c1ccsc1 [Compound 202, N-(4-Fluoro-3-trifluoromethyl-benzyl)-N-(3-thiophen-3-yl-benzo[b]thiophen-2-yl)-ethanesulfonamide] |  | 32% | 
9 | CCS(=O)(=O)N(Cc1ccc(F)c(F)c1)c1sc2ccccc2c1C(C)=O [Compound 203] |  |  | inhibition at 0.5 µM (read-out: % Inh @ 0.5 (μM)): 93%
10 | Cc1c(N(Cc2cccc(OC(F)(F)F)c2)S(=O)(=O)CCCBr)sc2ccccc12 [Compound 769, N-(3-Methyl-benzo[b]thiophen-2-yl)-N-(3-trifluoromethoxy-benzyl)-3-bromo-propane-1-sulfonamide] | 44 nM | 85% | 
11 | O=c1[nH]c(-c2ccc(S(=O)(=O)N(CCC(F)(F)F)c3sc4ccccc4c3Cl)cc2)no1 [Compound 609, N-(3-Chloro-benzo[b]thiophen-2-yl)-N-(3,3,3-trifluoro-propyl)-4-(5-oxo-4,5-dihydro-[1,2,4]oxadiazol-3-yl)-benzenesulfonamide] | 53.7 nM | 99% | 
12 | Cc1c(N(Cc2ccc(OC(F)(F)F)cc2)S(=O)(=O)c2nc3ccccc3[nH]2)sc2ccccc12 [Compound 729, N-(3-Methyl-benzo[b]thiophen-2-yl)-N-(4-trifluoromethoxy-benzyl)-1H-benzimidazole-2-sulfonamide] |  | 75% | 
13 | CCS(=O)(=O)N(CCOC(C)(C)C)c1sc2ccccc2c1C(C)=O [Compound 123, N-(3-Acetyl-benzo[b]thiophen-2-yl)-N-(2-tert-butoxy-ethyl)-ethanesulfonamide] |  | 60% | 
14 | O=S(=O)(c1ccccc1)N(Cc1ccccc1OC(F)(F)F)c1cc2ccccc2s1 [Compound 56, N-(Benzo[b]thiophen-2-yl)-N-(2-trifluoromethoxy-benzyl)-benzenesulfonamide] | 103 nM |  | inhibition at 0.5 µM [3]: 99%
15 | CCCCN(c1sc2ccccc2c1Cl)S(=O)(=O)NC [Compound 553, N-(3-Chloro-benzo[b]thiophen-2-yl)-N-(butyl)-N′-methyl-sulfamide] |  | 38.7% | 
16 | COc1cccc2c(Cl)c(N(Cc3ccc(F)c(F)c3)S(=O)(=O)c3ccccc3)sc12 [Compound 143, N-(3-Chloro-7-methoxy-benzo[b]thiophen-2-yl)-N-(3,4-difluoro-benzyl)-benzenesulfonamide] |  |  | inhibition at 0.5 µM [3]: 48%

Continued by falling IC50 [1], values first:

Row | IC50 [1] | inhibition at 0.2 µM [2] | Compound | further results
17 | 36.2 nM |  | CCCCS(=O)(=O)N(Cc1ccc(F)c(F)c1)c1sc2ccccc2c1Br [Compound 154, N-(3-Bromo-benzo[b]thiophen-2-yl)-N-(3,4-difluoro-benzyl)-butane-1-sulfonamide] | inhibition at 0.5 µM [3]: 96%
18 | 26.3 nM | 103% | COC(=O)c1ccc(S(=O)(=O)N(CCCCC(F)(F)F)c2sc3ccccc3c2C)cc1 [Compound 631, N-(3-Methyl-benzo[b]thiophen-2-yl)-N-(5,5,5-trifluoro-pentyl)-4-carbomethoxy-benzenesulfonamide] | 
19 | 26 nM |  | O=S(=O)(c1ccccc1)N(Cc1cccc(F)c1)c1sc2ccccc2c1Cl [Compound 23, N-(3-Chloro-benzo[b]thiophen-2-yl)-N-(3-fluoro-benzyl)-benzenesulfonamide] | inhibition at 0.5 µM [3]: 99%
20 | 22 nM | 90% | CCCCN(c1sc2ccccc2c1Br)S(=O)(=O)N(C)C [Compound 265, N-(3-Bromo-benzo[b]thiophen-2-yl)-N-(butyl)-N′,N′-dimethylsulfamide] | 
21 | 19 nM | 95% | COc1ncccc1S(=O)(=O)N(Cc1ccc(F)c(C(F)(F)F)c1)c1sc2ccccc2c1C [Compound 357, N-(3-Methyl-benzo[b]thiophen-2-yl)-N-(4-fluoro-3-trifluoromethyl-benzyl)-2-methoxy-pyridin-3-ylsulfonamide] | 
22 | 17 nM | 101% | O=C(Nc1ccc(S(=O)(=O)N(Cc2ccc(F)c(C(F)(F)F)c2)c2sc3ccccc3c2Br)cc1)C(F)(F)F [Compound 695, N-(3-Bromo-benzo[b]thiophen-2-yl)-N-(4-fluoro-3-trifluoromethyl-benzyl)-4-trifluoroacetamido-benzenesulfonamide] | 
23 | 15 nM | 101% | CC(=O)c1c(N(Cc2ccc(F)c(C(F)(F)F)c2)S(=O)(=O)c2ccc(C(=O)O)cc2)sc2ccccc12 [Compound 318, N-(3-Acetyl-benzo[b]thiophen-2-yl)-N-(4-fluoro-3-trifluoromethyl-benzyl)-4-carboxy-benzenesulfonamide] | 
24 | 15 nM | 100% | O=S(=O)(c1cccnc1)N(Cc1cc(Cl)ccc1F)c1sc2ccccc2c1Br [Compound 324, N-(3-Bromo-benzo[b]thiophen-2-yl)-N-(2-fluoro-5-chloro-benzyl)-pyridin-3-ylsulfonamide] | 
25 | 14.9 nM | 102% | Cc1c(N(CCCCC(F)(F)F)S(=O)(=O)c2ccc(N(C)C)nc2)sc2ccccc12 [Compound 787] | 
26 | 14.1 nM | 100% | CS(=O)(=O)Nc1ccc(S(=O)(=O)N(Cc2ccc(F)c(C(F)(F)F)c2)c2sc3ccccc3c2Cl)cc1 [Compound 659, N-(3-Chloro-benzo[b]thiophen-2-yl)-N-(4-fluoro-3-trifluoromethyl-benzyl)-4-methanesulfonylamino-benzenesulfonamide] | 
27 | 13 nM | 83% | COC(=O)c1ccc(S(=O)(=O)N(Cc2ccc(F)c(C(F)(F)F)c2)c2sc3ccccc3c2C)cc1 [Compound 138, N-(3-Methyl-benzo[b]thiophen-2-yl)-N-(4-fluoro-3-trifluoromethyl-benzyl)-4-carbomethoxy-benzenesulfonamide] | 
28 | 11 nM | 102% | CC(=O)c1ccc(S(=O)(=O)N(Cc2ccc(F)c(C(F)(F)F)c2)c2sc3ccccc3c2Br)cc1 [Compound 312, N-(3-Bromo-benzo[b]thiophen-2-yl)-N-(4-fluoro-3-trifluoromethyl-benzyl)-4-acetyl-benzenesulfonamide] | 
29 | 9 nM | 101% | O=c1[nH]c(-c2ccc(S(=O)(=O)N(Cc3ccc(F)c(C(F)(F)F)c3)c3cc4ccccc4s3)cc2)no1 [Compound 483, N-(Benzo[b]thiophen-2-yl)-N-(4-fluoro-3-trifluoromethyl-benzyl)-4-(5-oxo-4,5-dihydro-[1,2,4]oxadiazol-3-yl)-benzenesulfonamide] | 
30 | 7.4 nM | 101% | Cc1c(N(CCCCC(F)(F)F)S(=O)(=O)c2ccccc2)sc2ccccc12 [Compound 617, N-(3-Methyl-benzo[b]thiophen-2-yl)-N-(5,5,5-trifluoro-pentyl)-benzenesulfonamide] | 
31 | 5.3 nM | 102% | Cc1c(N(Cc2ccc(F)c(C(F)(F)F)c2)S(=O)(=O)CCC=O)sc2ccccc12 [Compound 724, N-(4-Fluoro-3-trifluoromethyl-benzyl)-N-(3-methyl-benzo[b]thiophen-2-yl)-3-oxo-propane-1-sulfonamide] | 
32 | 2.1 nM | 97% | O=S(=O)(c1ccccc1)N(Cc1ccc(F)c(C(F)(F)F)c1)c1sc2ccccc2c1CO [Compound 214, N-(4-Fluoro-3-trifluoromethyl-benzyl)-N-(3-hydroxymethyl-benzo[b]thiophen-2-yl)-benzenesulfonamide] | 
33 | 2 nM | 101% | Cc1c(N(Cc2ccc(Cl)c(F)c2)S(=O)(=O)c2ccc(C(=O)O)cc2)sc2ccccc12 [Compound 521, N-(3-Methyl-benzo[b]thiophen-2-yl)-N-(4-chloro-3-fluoro-benzyl)-4-carboxy-benzenesulfonamide] | 
34 | 2 nM |  | O=S(=O)(c1ccccc1)N(Cc1ccc(F)cc1)c1sc2ccccc2c1Br [Compound 140, N-(3-Bromo-benzo[b]thiophen-2-yl)-N-(4-fluoro-benzyl)-benzenesulfonamide] | inhibition at 0.5 µM [3]: 98%
